{
  "source": "patent US6586435B2",
  "about": "“Benzimidazolone derivatives displaying affinity at the serotonin and dopamine receptors” (Boehringer Ingelheim Pharma KG, priority 2000, dated 2003)",
  "key": {"5-HT1A human receptors": {"target": "T1, 5-HT1A human receptors (Homo sapiens, UniProt P08908)", "T1 construct": "expressed in transfected cells; host or cells: CHO cells", "T1 sequence (P08908 1-422)": "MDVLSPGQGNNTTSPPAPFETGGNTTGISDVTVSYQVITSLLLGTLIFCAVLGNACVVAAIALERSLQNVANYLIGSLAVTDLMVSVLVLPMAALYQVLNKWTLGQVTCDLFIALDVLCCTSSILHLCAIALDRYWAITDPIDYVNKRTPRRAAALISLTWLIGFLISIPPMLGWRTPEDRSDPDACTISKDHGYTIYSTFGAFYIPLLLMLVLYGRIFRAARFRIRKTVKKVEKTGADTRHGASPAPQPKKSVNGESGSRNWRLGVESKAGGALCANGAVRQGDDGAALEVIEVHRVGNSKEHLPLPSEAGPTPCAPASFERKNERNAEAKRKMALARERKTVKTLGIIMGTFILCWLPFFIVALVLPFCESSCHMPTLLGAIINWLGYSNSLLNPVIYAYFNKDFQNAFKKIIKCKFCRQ", "test": "5-HT1A radioligand receptor binding assay ([3H]-8-OH-DPAT)", "details": "membranes from CHO cells", "method": "5-HT1A, Radioligand Receptor Binding Assay\nMembranes from CHO cells, expressing 5-HT1A human receptors were suspended in incubation buffer.\nBinding assays were performed in MultiProbe 204 pipetting system (Packard), according to a predetermined mapping, consistent with the software Screen. The compounds were tested in singlicate at one concentration (10^−7 M) in a total volume of 1000 μl. 980 μl of diluted membranes, 10 μl DMSO or unlabelled ligand, and 10 μl of [^3H]-8-OH-DPAT (0.6-0.7 nM) were incubated for 60 minutes at 27° C. The reaction was stopped by rapid filtration through Tomtec Cell Harvester (48 wells) using Filtermat B (presoaked in 0.1% PEI) filters. Filters were washed with ice-cold 50 mM Tris-HCl (pH 7.4) buffer (9×700 μl), dried, covered with MeltiLex B/HS scintillator sheets (Wallac) and heated at 80° C. to 90° C. for about 10 minutes, transferred into plastic sample bags (Wallac), sealed and put into 1024 Beta Plate scintillation counter (Wallac). Non-specific binding was determined in the presence of 5-HT (10^−5 M).\nThe specific radioligand binding to the receptor was defined by the difference between total binding and non-specific binding, determined in the presence of an excess of unlabelled ligand. Results were expressed as percentage of control specific binding obtained in the presence of the compounds. The affinity values (IC50) for the compounds were obtained by a nonlinear least squares regression analysis on the basis of a one binding site model."}, "D4 human receptors": {"target": "T2, D4 human receptors (Homo sapiens, UniProt P21917)", "T2 construct": "expressed in transfected cells; host or cells: CHO cells", "T2 sequence (P21917 1-419)": "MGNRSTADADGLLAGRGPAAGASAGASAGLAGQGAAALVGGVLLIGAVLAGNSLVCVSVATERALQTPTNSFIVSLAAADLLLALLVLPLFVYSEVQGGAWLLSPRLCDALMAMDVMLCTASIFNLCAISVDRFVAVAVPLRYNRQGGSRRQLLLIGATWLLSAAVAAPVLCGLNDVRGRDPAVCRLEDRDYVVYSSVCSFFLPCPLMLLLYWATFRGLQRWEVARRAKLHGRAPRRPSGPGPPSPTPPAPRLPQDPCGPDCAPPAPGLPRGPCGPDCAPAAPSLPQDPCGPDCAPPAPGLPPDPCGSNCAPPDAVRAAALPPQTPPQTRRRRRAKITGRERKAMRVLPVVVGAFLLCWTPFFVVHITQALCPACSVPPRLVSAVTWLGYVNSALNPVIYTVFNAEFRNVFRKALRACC", "test": "D4 radioligand receptor binding assay ([3H] YM-09151-2)", "details": "compound 10^−7 M, singlicate; membranes from CHO cells; [3H] YM-09151-2 0.15-0.25 nM", "method": "D4 Radioligand Receptor Binding Assay\nMembranes from CHO cells, expressing D4 human receptors were suspended in incubation buffer.\nBinding assays were performed in MultiProbe 204 pipetting system (Packard), according to a predetermined mapping, consistent with the software Screen. The compounds were tested in singlicate at one concentration (10^−7 M) in a total volume of 1000 μl (980 μl of diluted membranes, 10 μl DMSO or unlabelled ligand, and 10 μl of [^3H] YM-09151-2 (0.15-0.25 nM). After incubation for 120 minutes at 27° C., the reaction was stopped by rapid filtration through Tomtec Cell Harvester (48 wells) using Filtermat B (presoaked in 0.1% PEI) filters. Filters were washed with ice-cold 50 mM Tris-HCl (pH 7.4) buffer (9×700 μl), dried, covered with MeltiLex B/HS (Wallac) scintillator sheets and heated in oven at 80° C.-90° C. for about 10 minutes, transferred into plastic sample bags (Wallac), sealed and put into 1024 Beta Plate scintillation counter (Wallac). Non-specific binding was determined in the presence of clozapine dissolved in DMSO to a final concentration of 10^−5 M.\nThe specific radioligand binding to the receptor was defined by the difference between total binding and non-specific binding, determined in the presence of an excess of unlabelled ligand. Results were expressed as percentage of control specific binding obtained in the presence of the compounds."}, "[1]": {"target": "T3, 5-HT1A receptor (CHO/5-HT1A cells) (Homo sapiens, UniProt P08908)", "T3 construct": "expressed in transfected cells; host or cells: CHO/5-HT1A cells", "T3 sequence (P08908 1-422)": "T1 sequence (P08908 1-422)", "test": "5-HT1A functional assay (cAMP)", "format": "cell-based", "details": "10 μM compound, % inhibition of the cAMP accumulation induced by 10 μM FSK, read-out: 5-HT1A cAMP % Inhibition (agonist activity)", "method": "5-HT1A Functional Assay (cAMP)\nCHO/5-HT1A cells were random seeded at a density of about 200,000/well in 24 well plates the day prior to the experiment. On the day of the experiment, cells were pretreated for 15 minutes at 37° C. with 500 μM isobutylmethylxantine (IBMX) dissolved in culture medium without serum. Wells were then divided in different groups in duplicate as follows: control, 10 μM FSK, 10 μM FSK+1 μM 5-HT as positive standard and 10 μM FSK+10 μM of the different compound under evaluation. Sample solutions were added and incubated for additional 15 minutes at 37° C. After incubation, medium was aspirated and the reaction stopped by adding 200 μl of lysis buffer. Plates were shaken for 5 minutes, then the lysate was removed and samples were stored at 4° C. until the day of the assay. For the cAMP evaluation, samples were properly diluted and the cAMP content was measured by an enzyme immunoassay system.\nResults are expressed as % inhibition of the cAMP accumulation induced by 10 μM FSK."}},
  "note": "pIC50: −log10 of the molar value.",
  "data": [
    {"compound": "CCCn1c(=O)n(C/C=C/CN2CCN(c3ccccn3)CC2)c2ccccc21", "note": "[Compound 106]", "values": [
      {"measurement": "inhibition at 0.1 µM", "setting": "5-HT1A human receptors; compound 10^−7 M, singlicate, [3H]-8-OH-DPAT 0.6-0.7 nM", "result": 92, "unit": "%"},
      {"measurement": "pIC50", "setting": "5-HT1A human receptors; [3H]-8-OH-DPAT, one binding site model, read-out: 5-HT1A Receptor Binding IC50", "result": 8.13},
      {"measurement": "inhibition at 0.1 µM", "setting": "D4 human receptors", "result": 37, "unit": "%"},
      {"measurement": "inhibition at 10 µM", "setting": "[1]", "result": 68, "unit": "%"}
    ]}
  ]
}
